Reference: ChEMBL document CHEMBL5244253, “Recent research progress on natural small molecule bibenzyls and its derivatives in Dendrobium species” (Eur J Med Chem, 2020)
Each block holds one compound with its values, some of them ahead of it.

How the values were obtained:
[1] = test system: HL-60; assay: Anti-cancer activity against human HL-60 cells; type: functional, cell-based
[2] = test system: THP-1; assay: Anti-cancer activity against human THP-1 cells; type: functional, cell-based
[3] = test system: NCI-H23; assay: Anti-cancer activity against human NCI-H23 cells; type: functional, cell-based
[4] = test system: FaDu; assay: Cytotoxicity against human FaDu cells assessed as cell viability incubated for 24 hrs by CCK-8 assay; type: functional, cell-based
[5] = Antioxidant activity assessed as DPPH radical scavenging activity incubated for 30 mins by spectrophotometric analysis; type: functional
[6] = test system: K562; assay: Anti-cancer activity against human K562 cells; type: functional, cell-based
[7] = test system: SGC-7901; assay: Anti-cancer activity against human SGC-7901 cells; type: functional, cell-based
[8] = test system: KB; assay: Anti-cancer activity against human KB cells; type: functional, cell-based
[9] = test system: Bel-7402; assay: Anti-cancer activity against human Bel-7402 cells; type: functional, cell-based
[10] = test system: HepG2; assay: Anti-cancer activity against human HepG2 cells; type: functional, cell-based
[11] = test system: MCF7; assay: Anti-cancer activity against human MCF7 cells; type: functional, cell-based
[12] = test system: NCI-H460; assay: Anti-cancer activity against human NCI-H460 cells; type: functional, cell-based
[13] = test system: NCI-H187; assay: Anti-cancer activity against human NCI-H187 cells; type: functional, cell-based
[14] = molecular target: Tyrosine-protein phosphatase non-receptor type 1 (Homo sapiens, UniProt P18031); assay: Inhibition of PTP1B (unknown origin)
[15] = test system: NCI-H460; assay: Cytotoxicity against human NCI-H460 cells assessed as cell viability by MTT assay; type: functional, cell-based
[16] = test system: PC-12; assay: Neuroprotection against Amyloid beta (25 to 35)-induced toxicity in rat PC-12 cells assessed as increase in cell viability at 50 uM for 24 hrs by MTT assay relative to control; type: functional
[17] = test system: PC-12; assay: Neuroprotection against Amyloid beta (25 to 35)-induced toxicity in rat PC-12 cells assessed as increase in cell viability at 25 uM for 24 hrs by MTT assay relative to control; type: functional
[18] = test system: PC-12; assay: Neuroprotection against Amyloid beta (25 to 35)-induced toxicity in rat PC-12 cells assessed as increase in cell viability at 10 uM for 24 hrs by MTT assay relative to control; type: functional
[19] = Permeability of the compound by PAMPA-BBB assay; type: ADME; conditions: read-out: permeability
[20] = test system: MCF7; assay: Cytotoxicity against human MCF7 cells assessed as cell viability incubated for 48 hrs by MTS assay; type: functional, cell-based; conditions: MCF7, 48 h
[21] = test system: RAW264.7; assay: Antiinflammatory activity in mouse RAW264.7 cells assessed as inhibition of H2O2-induced intracellular ROS production at 50 ug/ml measured after 24 hrs by DCFH-DA staining based fluorescence assay; type: functional
[22] = test system: RAW264.7; assay: Antiinflammatory activity in mouse RAW264.7 cells assessed as inhibition of LPS-induced TNFalpha secretion at 50 ug/ml measured after 24 hrs; type: functional
[23] = test system: RAW264.7; assay: Antiinflammatory activity in mouse RAW264.7 cells assessed as inhibition of LPS-induced NO production at 50 ug/ml measured after 24 hrs; type: functional
[24] = test system: MDA-MB-231; assay: Cytotoxicity against human MDA-MB-231 cells assessed as cell viability incubated for 72 hrs by MTT assay; type: functional, cell-based; conditions: MDA-MB-231, 72 h
[25] = test system: HepG2; assay: Cytotoxicity against human HepG2 cells assessed as cell viability incubated for 72 hrs by MTT assay; type: functional, cell-based; conditions: HepG2, 72 h
[26] = test system: HT-29; assay: Cytotoxicity against human HT-29 cells assessed as cell viability incubated for 72 hrs by MTT assay; type: functional, cell-based; conditions: HT-29, 72 h
[27] = molecular target: Alpha amylase (Homo sapiens, UniProt P0DUB6); assay: Inhibition of alpha-amylase (unknown origin) by HPLC analysis
Sequence of Alpha amylase (P0DUB6 whole entry): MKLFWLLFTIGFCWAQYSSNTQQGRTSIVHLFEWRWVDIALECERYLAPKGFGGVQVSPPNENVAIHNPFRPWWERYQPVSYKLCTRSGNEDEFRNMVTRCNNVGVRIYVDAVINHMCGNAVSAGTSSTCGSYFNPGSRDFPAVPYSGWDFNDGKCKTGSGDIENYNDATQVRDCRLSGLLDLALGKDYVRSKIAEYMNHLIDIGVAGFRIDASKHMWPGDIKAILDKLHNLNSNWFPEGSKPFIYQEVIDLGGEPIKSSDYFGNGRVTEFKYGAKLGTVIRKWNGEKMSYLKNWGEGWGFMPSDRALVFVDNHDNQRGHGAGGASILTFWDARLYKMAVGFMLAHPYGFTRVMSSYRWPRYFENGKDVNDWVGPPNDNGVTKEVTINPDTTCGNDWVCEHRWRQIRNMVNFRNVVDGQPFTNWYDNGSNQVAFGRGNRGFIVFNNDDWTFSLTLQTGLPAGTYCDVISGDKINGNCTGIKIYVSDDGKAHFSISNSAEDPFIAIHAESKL

Sequence of Tyrosine-protein phosphatase non-receptor type 1 (P18031 whole entry): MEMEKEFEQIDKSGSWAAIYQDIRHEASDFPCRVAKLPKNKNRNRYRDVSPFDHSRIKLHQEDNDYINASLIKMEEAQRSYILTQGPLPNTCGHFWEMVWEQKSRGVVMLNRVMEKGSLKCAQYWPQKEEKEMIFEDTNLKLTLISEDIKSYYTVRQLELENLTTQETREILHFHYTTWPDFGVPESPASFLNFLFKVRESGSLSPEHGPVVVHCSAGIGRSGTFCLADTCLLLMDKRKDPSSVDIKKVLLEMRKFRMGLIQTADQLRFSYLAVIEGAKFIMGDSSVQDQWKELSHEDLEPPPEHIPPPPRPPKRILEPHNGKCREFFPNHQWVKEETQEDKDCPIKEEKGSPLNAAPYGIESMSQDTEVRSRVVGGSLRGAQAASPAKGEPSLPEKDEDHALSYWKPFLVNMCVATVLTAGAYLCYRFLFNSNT

SMILES: COc1cc(O)cc(CCc2ccc(O)c(OC)c2)c1 [GIGANTOL]
- IC50 [1]: 10.6 µM
- IC50 [2]: 23.3 µM
- IC50 [6]: 63.9 µM
- IC50 [7]: 17.4 µM
- IC50 [8]: 61.9 µM
- IC50 [9]: 13 µM
- IC50 [10]: 9.3 µM
- IC50 [11]: 67.8 µM
- IC50 [12]: 76.9 µM
- IC50 [13]: 235 µM
- IC50 [14]: 73.3 µM
- IC50 [5]: 17.7 µM

SMILES: COc1ccc(CCc2cc3c(c(OC)c2)C[C@@H](CO)[C@H](c2ccc(O)c(OC)c2)C3)cc1
- IC50 [20]: 38.5 µM

SMILES: COc1cc(CC2c3cc(O)c(O)c(OC)c3Oc3cc(O)c4c(c32)CCc2cc(O)ccc2-4)ccc1O (stereo not drawn)
- inhibition at 50 µg/mL [21]: 65%
- inhibition at 50 µg/mL [22]: 70%
- inhibition at 50 µg/mL [23]: 65%

More lines, main results first:

- IC50 [1]: 0.082 µM
- IC50 [2]: 226 µM
- IC50 [3]: 33.4 µM
- IC50 [5]: 17.1 µM
SMILES: COc1cc(CCc2cc(OC)c(O)c(OC)c2)ccc1O [MOSCATILIN]
- IC50 [4]: 2.55 µM

- IC50 [3]: 145 µM
- Papp [19]: 4.1 ×10⁻⁶ cm/s
- IC50 [5]: 14 µM
SMILES: COc1ccc(CCc2cc(OC)c(O)c(OC)c2)cc1OC
- IC50 [15]: 127 µM
- Activity [16]: 58.89%
- Activity [17]: 55.02%
- Activity [18]: 52.72%

- IC50 [1]: 10.7 µM
- IC50 [27]: 5990 µM
SMILES: COc1ccc(CCc2cc(O)c(O)c(OC)c2)cc1
- IC50 [24]: 80.5 µM
- IC50 [25]: 138 µM
- IC50 [26]: 88.2 µM
